Assay results published in ChEMBL document CHEMBL5291721, “A preclinical secondary pharmacology resource illuminates target-adverse drug reaction associations of marketed drugs” (Nat Commun, 2023).

Columns and labels:
[1] = biological target: T1, Muscarinic acetylcholine receptor M2 (Homo sapiens, UniProt P08172)
T1 sequence (P08172 whole entry): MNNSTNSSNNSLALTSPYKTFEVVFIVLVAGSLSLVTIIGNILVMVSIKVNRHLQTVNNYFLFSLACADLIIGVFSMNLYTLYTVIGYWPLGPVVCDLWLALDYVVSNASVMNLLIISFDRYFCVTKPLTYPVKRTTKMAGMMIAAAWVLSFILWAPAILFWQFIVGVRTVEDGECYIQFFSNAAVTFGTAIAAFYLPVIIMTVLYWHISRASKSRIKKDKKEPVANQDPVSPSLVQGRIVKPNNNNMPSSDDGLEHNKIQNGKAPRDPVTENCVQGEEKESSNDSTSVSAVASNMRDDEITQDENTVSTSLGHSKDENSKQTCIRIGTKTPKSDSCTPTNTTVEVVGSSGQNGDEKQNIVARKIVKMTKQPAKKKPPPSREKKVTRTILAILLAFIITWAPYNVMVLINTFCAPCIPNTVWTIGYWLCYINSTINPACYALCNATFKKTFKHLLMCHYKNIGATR

[2] = biological target: T2, Prostaglandin G/H synthase 1 (Homo sapiens, UniProt P23219); format: functional
T2 sequence (P23219 whole entry): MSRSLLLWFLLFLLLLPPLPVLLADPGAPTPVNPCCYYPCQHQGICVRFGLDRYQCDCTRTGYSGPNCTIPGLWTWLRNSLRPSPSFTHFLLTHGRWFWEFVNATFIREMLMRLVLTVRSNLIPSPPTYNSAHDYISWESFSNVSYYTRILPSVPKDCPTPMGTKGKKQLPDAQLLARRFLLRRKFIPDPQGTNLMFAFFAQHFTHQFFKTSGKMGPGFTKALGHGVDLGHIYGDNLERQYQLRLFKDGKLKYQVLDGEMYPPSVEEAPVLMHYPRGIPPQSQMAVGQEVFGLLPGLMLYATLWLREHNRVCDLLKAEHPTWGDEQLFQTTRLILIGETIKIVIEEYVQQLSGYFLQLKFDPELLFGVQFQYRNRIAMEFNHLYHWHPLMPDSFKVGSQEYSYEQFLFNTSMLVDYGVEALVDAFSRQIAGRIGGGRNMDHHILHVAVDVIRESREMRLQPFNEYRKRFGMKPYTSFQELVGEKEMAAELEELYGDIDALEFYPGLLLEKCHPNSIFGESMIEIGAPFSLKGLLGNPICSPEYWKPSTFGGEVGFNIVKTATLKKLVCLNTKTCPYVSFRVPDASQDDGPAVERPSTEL

Histamine H3 receptor = Histamine H3 receptor (Homo sapiens, UniProt Q9Y5N1)
Chain of Histamine H3 receptor (Q9Y5N1 whole entry): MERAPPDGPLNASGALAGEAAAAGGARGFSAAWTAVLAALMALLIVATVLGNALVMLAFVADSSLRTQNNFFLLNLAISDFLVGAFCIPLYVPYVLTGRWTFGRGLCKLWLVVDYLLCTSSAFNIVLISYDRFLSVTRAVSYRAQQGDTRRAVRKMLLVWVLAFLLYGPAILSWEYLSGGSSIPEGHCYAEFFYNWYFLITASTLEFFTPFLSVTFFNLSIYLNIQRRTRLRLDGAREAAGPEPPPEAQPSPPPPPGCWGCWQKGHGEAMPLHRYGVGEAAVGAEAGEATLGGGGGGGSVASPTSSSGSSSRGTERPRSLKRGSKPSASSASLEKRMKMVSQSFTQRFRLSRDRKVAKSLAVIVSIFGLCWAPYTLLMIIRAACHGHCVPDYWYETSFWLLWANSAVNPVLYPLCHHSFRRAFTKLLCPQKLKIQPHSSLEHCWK

D(3) dopamine receptor = D(3) dopamine receptor (Homo sapiens, UniProt P35462)
Chain of D(3) dopamine receptor (P35462 whole entry): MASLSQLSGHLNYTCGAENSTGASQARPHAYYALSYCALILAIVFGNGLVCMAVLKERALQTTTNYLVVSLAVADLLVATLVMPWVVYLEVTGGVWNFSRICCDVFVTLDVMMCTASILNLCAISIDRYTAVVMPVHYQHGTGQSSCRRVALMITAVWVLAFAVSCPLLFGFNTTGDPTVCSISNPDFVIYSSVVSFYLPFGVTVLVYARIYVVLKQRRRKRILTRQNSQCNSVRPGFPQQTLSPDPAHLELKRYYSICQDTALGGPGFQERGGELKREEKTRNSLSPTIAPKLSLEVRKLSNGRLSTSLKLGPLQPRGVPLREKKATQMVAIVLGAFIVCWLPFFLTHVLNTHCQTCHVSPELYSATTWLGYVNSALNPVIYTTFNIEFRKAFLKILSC

[3] = biological target: T3, Alpha-2A adrenergic receptor (Homo sapiens, UniProt P08913)
T3 sequence (P08913 whole entry): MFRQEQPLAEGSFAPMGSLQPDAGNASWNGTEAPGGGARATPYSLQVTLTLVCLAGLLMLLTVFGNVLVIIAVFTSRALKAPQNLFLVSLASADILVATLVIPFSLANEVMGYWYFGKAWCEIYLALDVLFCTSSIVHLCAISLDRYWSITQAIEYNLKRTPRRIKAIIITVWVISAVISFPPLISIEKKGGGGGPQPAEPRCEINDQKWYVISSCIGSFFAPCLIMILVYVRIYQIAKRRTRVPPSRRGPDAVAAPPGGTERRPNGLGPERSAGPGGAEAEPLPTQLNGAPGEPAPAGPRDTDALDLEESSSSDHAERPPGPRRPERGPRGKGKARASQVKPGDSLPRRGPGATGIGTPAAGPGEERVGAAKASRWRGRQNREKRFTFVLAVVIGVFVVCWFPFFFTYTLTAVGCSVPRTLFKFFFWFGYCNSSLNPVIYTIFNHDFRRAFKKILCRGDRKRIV

[4] = biological target: Vascular endothelial growth factor receptor 2 (Homo sapiens, UniProt P35968); format: functional
Chain of Vascular endothelial growth factor receptor 2 (P35968 whole entry): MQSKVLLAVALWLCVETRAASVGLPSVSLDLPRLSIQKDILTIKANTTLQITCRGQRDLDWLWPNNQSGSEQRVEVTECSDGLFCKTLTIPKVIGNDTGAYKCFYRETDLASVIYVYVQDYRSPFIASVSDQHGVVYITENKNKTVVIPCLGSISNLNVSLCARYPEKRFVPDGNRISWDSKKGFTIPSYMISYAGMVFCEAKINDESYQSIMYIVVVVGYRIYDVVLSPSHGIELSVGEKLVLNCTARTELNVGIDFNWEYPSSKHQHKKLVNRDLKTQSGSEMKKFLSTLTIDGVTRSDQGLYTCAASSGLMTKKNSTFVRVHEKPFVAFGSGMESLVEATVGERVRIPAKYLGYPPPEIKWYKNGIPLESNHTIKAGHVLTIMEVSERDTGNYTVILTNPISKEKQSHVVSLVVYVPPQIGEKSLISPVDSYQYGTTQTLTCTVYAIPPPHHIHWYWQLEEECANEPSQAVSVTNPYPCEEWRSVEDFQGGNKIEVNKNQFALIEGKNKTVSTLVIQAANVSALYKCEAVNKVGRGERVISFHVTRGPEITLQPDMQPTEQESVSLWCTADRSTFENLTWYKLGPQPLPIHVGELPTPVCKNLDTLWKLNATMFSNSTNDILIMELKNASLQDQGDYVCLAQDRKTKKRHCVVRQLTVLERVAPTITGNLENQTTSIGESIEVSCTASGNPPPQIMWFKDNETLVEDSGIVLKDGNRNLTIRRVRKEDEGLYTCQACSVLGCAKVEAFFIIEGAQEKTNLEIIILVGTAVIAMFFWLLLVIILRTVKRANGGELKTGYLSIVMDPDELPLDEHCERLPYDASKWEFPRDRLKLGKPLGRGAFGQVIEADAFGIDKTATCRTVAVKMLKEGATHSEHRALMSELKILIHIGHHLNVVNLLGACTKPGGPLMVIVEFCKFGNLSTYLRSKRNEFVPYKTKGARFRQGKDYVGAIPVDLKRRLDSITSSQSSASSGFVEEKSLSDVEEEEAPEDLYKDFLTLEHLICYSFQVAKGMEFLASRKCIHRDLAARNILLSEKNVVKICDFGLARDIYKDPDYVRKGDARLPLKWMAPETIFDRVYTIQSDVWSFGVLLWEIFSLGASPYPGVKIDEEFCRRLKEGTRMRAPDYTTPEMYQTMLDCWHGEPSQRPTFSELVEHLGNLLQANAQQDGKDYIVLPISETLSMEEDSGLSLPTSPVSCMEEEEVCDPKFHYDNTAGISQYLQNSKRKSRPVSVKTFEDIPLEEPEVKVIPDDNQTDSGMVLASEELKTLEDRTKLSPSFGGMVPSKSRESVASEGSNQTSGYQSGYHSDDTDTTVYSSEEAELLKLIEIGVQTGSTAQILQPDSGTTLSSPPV

[5] = biological target: T2, Prostaglandin G/H synthase 1; format: functional; remark: listed apart in the source
Prothrombin = Prothrombin (Homo sapiens, UniProt P00734); format: functional
[6] = biological target: cGMP-inhibited 3',5'-cyclic phosphodiesterase 3A (Homo sapiens, UniProt Q14432); format: functional
Chain of cGMP-inhibited 3',5'-cyclic phosphodiesterase 3A (Q14432 whole entry): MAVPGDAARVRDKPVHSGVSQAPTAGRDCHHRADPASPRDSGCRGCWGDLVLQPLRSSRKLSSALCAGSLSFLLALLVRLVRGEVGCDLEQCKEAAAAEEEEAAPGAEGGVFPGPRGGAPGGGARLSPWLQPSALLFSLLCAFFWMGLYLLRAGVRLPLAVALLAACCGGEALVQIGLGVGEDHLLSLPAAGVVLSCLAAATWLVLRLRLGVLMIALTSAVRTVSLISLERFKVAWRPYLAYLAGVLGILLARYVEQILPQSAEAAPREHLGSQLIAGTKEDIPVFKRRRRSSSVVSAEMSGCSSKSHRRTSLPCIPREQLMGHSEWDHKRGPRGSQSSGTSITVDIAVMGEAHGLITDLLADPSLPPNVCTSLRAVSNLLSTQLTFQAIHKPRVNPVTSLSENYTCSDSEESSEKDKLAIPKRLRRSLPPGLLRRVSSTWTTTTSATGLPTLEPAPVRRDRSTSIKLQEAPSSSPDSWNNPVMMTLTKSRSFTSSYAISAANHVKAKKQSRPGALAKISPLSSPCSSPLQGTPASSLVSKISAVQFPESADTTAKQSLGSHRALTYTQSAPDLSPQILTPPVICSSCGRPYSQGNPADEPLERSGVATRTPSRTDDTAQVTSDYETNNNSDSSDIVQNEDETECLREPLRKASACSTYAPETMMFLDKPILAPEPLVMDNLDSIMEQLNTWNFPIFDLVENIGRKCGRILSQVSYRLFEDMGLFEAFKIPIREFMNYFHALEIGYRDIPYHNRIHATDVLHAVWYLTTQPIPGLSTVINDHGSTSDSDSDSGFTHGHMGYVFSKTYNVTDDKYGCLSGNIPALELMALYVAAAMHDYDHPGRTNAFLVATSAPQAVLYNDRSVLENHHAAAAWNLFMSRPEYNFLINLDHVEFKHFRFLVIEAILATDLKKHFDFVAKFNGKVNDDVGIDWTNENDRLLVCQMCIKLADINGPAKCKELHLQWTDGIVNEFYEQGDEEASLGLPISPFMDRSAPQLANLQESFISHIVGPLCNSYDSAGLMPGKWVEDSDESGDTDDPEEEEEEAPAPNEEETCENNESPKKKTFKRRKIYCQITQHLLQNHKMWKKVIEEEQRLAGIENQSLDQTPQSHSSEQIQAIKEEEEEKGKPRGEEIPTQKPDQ
Note: assay procedure not described here.

| SMILES | AC50 [1] [µM] | AC50 [2] [µM] | AC50 (Histamine H3 receptor) [µM] | AC50 (D(3) dopamine receptor) [µM] | AC50 [3] [µM] | AC50 [4] [µM] | AC50 [5] [µM] | AC50 (Prothrombin) [µM] | AC50 [6] [µM] |
| --- | --- | --- | --- | --- | --- | --- | --- | --- | --- |
| COC(=O)c1ccc(O)cc1 [METHYLPARABEN] | > 30 | > 1 | > 30 | > 30 | > 30 | > 30 | > 30 | > 30 | > 30 |
| CCOC(=O)N1CSC[C@H]1C(=O)O [TELMESTEINE] | > 30 | > 30 | > 30 | > 30 | > 30 | > 30 | > 30 | > 30 | > 30 |
| Cc1ncc(COP(=O)(O)O)c(C=O)c1O [PYRIDOXAL PHOSPHATE ANHYDROUS] | > 30 | 6.68 | > 30 | > 30 | > 30 | > 30 | 8.66 | > 30 | > 30 |
| Cc1c(N(C)CS(=O)(=O)O)c(=O)n(-c2ccccc2)n1C [METAMIZOLE] | > 30 | 3.66 | > 30 | > 30 | > 30 | > 30 | > 30 | > 30 | > 30 |
| CCC(=O)O[C@]1(C(=O)CCl)[C@@H](C)C[C@H]2[C@@H]3C[C@H](F)C4=CC(=O)C=C[C@]4(C)[C@@]3(F)[C@@H](O)C[C@@]21C [HALOBETASOL PROPIONATE] | > 30 | > 30 | > 30 | > 30 | > 30 | > 30 | > 30 | > 30 | > 30 |
| CC(C)N(CCNC(=O)CN1CCCC1=O)C(C)C | > 30 | > 30 | > 30 | > 30 | > 30 | > 30 | > 30 | > 30 | > 30 |
| Cc1ccccc1N1CCN(CCc2nnc3n2CCCC3)CC1 [DAPIPRAZOLE] | 7.61 | > 30 | > 30 | 16.6 | 3.77 | > 30 | > 30 | > 30 | > 30 |
| CN(C)CCOC(c1ccccc1)c1ccc(Br)cc1 (configuration not stated) [BROMODIPHENHYDRAMINE] | 1.42 | > 30 | > 30 | 2.68 | 8.38 | > 30 | > 30 | > 30 | > 30 |
| CC(C)(C)NC[C@H](O)COc1cccc2c1CCCC2=O [LEVOBUNOLOL] | > 30 | > 30 | > 30 | > 30 | > 30 | > 30 | > 30 | > 30 | > 30 |
| CC(N)Cc1ccc(O)cc1 (configuration not stated) [HYDROXYAMPHETAMINE] | > 30 | > 30 | > 30 | > 30 | > 30 | > 30 | > 30 | > 30 | > 30 |
| NCC(CC(=O)O)c1ccccc1 (configuration not stated) [PHENIBUT] | > 30 | > 30 | > 30 | > 30 | > 30 | > 30 | > 30 | > 30 | > 30 |
| CC1=CCC(C(C)(C)O)CC1O (configuration not stated) [SOBREROL] | > 30 | > 30 | > 30 | > 30 | > 30 | > 30 | > 30 | > 30 | > 10 |
| CCCc1nc(C(C)(C)O)c(C(=O)O)n1Cc1ccc(-c2ccccc2-c2nnn[nH]2)cc1 [OLMESARTAN] | > 30 | > 30 | > 30 | > 30 | > 30 | > 30 | > 30 | > 30 | > 30 |
